ChEMBL document CHEMBL1201862, “PubChem BioAssay data set” (2004)
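Method: 48-hour compound exposure of cells in 96-well plates, five concentrations, linear interpolation of endpoints. The concentration for 50% growth inhibition is given as GI50.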 The source made the active and inactive calls. No stated cut-off is given here; in the data, active = GI50 up to about 1.1 µM and inactive = higher.

Columns and labels:
Assay in all cases: growth of human tumour cells (NCI), 48 h
A498 = system: A498
OVCAR-8 = system: OVCAR-8
SK-MEL-5 = system: SK-MEL-5
KM12 = system: KM12
HCT-15 = system: HCT-15
UACC-257 = system: UACC-257
A549 = system: A549
HCT-116 = system: HCT-116
CCRF-CEM = system: CCRF-CEM
MDA-MB-435 = system: MDA-MB-435
UO-31 = system: UO-31
NCI-H522 = system: NCI-H522
TK-10 = system: TK-10
HT-29 = system: HT-29
IGROV-1 = system: IGROV-1
MDA-N = system: MDA-N
HOP-62 = system: HOP-62
Hs-578T = system: Hs-578T
HCC 2998 = system: HCC 2998

Measured: GI50

CN(C)Cc1cc(C(F)(F)F)ccc1C(O)(c1ccccc1)c1ccccc1
14.7 µM: HCT-15
inactive: A498 11.7 µM | OVCAR-8 17.9 µM | SK-MEL-5 14.1 µM | KM12 16.9 µM | UACC-257 11.6 µM | A549 15 µM | HCT-116 13 µM | CCRF-CEM 6.92 µM | MDA-MB-435 18.8 µM | UO-31 12.1 µM | NCI-H522 15.6 µM | TK-10 17.2 µM | HT-29 5.05 µM | IGROV-1 15.9 µM | MDA-N 14.4 µM | HOP-62 16.3 µM | Hs-578T 26.9 µM

CCON=C1C(C)(C)C(C)(C)C(C)(C)C1(C)C
> 100 µM: HCT-15
inactive: A498 > 100 µM | OVCAR-8 > 100 µM | SK-MEL-5 > 100 µM | KM12 > 100 µM | UACC-257 > 100 µM | A549 > 100 µM | HCT-116 > 100 µM | CCRF-CEM > 100 µM | MDA-MB-435 > 100 µM | NCI-H522 > 100 µM | TK-10 > 100 µM | HT-29 > 100 µM | IGROV-1 > 100 µM | MDA-N > 100 µM | HOP-62 > 100 µM | Hs-578T > 100 µM

O=C1CSC(c2cccc(Cl)c2)N1c1c(O)c(Cl)cc(Br)c1Cl (stereo unspecified)
inactive: A498 > 100 µM | SK-MEL-5 27.3 µM | KM12 34 µM | UACC-257 22.4 µM | A549 53.3 µM | HCT-116 15.1 µM | CCRF-CEM 19.8 µM | MDA-MB-435 17.1 µM | UO-31 15.6 µM | TK-10 83.4 µM | HT-29 > 100 µM | MDA-N 17.1 µM | HOP-62 > 100 µM | Hs-578T 29.8 µM
15 µM: HCT-15

COC(=O)C(CCCCN)NC(=O)C(CCCCN)NC(=O)C(CCCCN)NC(C)=O.Cc1ccc(C(=O)Nc2ccc(S(=O)(=O)O)c3cc(S(=O)(=O)O)cc(S(=O)(=O)O)c23)cc1NC(=O)c1cccc(NC(=O)Nc2cccc(C(=O)Nc3cc(C(=O)Nc4ccc(S(=O)(=O)O)c5cc(S(=O)(=O)O)cc(S(=O)(=O)O)c45)ccc3C)c2)c1
18.6 µM: HCT-15
inactive: A498 > 50 µM | OVCAR-8 > 50 µM | SK-MEL-5 > 50 µM | KM12 > 50 µM | UACC-257 > 50 µM | A549 > 50 µM | HCC 2998 > 50 µM | HCT-116 > 50 µM | CCRF-CEM > 50 µM | MDA-MB-435 > 50 µM | UO-31 > 50 µM | HT-29 > 50 µM | MDA-N > 50 µM | Hs-578T > 50 µM

CCOC(=O)CC[C@H](NC(=O)c1ccc(CNc2nc3cc(C(F)(F)F)ccc3nc2C(=O)OCC)cc1)C(=O)OCC
inactive: A498 > 100 µM | OVCAR-8 9.42 µM | SK-MEL-5 27.9 µM | KM12 52.2 µM | UACC-257 42.8 µM | A549 34.7 µM | HCT-116 > 56.1 µM | CCRF-CEM > 100 µM | MDA-MB-435 > 73.6 µM | UO-31 25.2 µM | NCI-H522 15.7 µM | TK-10 15.4 µM | HT-29 > 100 µM | IGROV-1 21 µM | MDA-N > 100 µM | HOP-62 9.25 µM | Hs-578T 7.16 µM
76.2 µM: HCT-15

COc1cc(C2SCC(=O)N2NC(=O)c2ccc(NC(C)=O)cc2OC)ccc1O (stereo unspecified)
inactive: A498 7.59 µM | OVCAR-8 25.2 µM | A549 54.2 µM | HCT-116 > 100 µM | CCRF-CEM > 100 µM | MDA-MB-435 > 100 µM | UO-31 > 100 µM | NCI-H522 > 100 µM | HT-29 > 100 µM | IGROV-1 58.2 µM | MDA-N > 100 µM | HOP-62 4.12 µM | Hs-578T > 100 µM
> 100 µM: HCT-15

Cc1c(CCN2CCOCC2)c(N2CCOCC2)n2c(nc3ccccc32)c1C#N
> 10 µM: HCT-15
inactive: A498 6.31 µM | OVCAR-8 > 10 µM | SK-MEL-5 > 10 µM | KM12 > 10 µM | UACC-257 > 10 µM | A549 > 10 µM | HCT-116 > 10 µM | CCRF-CEM > 10 µM | MDA-MB-435 > 10 µM | UO-31 > 10 µM | TK-10 > 10 µM | HT-29 > 10 µM | IGROV-1 > 10 µM | MDA-N > 10 µM | HOP-62 > 10 µM | Hs-578T 3.77 µM

Cc1[nH]c2ncn(Nc3ccccc3)c(=N)c2c1Cc1ccccc1
inactive: A498 33 µM | OVCAR-8 32.9 µM | KM12 5.31 µM | A549 1.48 µM | HCC 2998 > 100 µM | CCRF-CEM 37.3 µM | UO-31 > 100 µM | TK-10 > 75.9 µM | HT-29 2.6 µM | IGROV-1 3.85 µM | HOP-62 32.4 µM | Hs-578T 8.28 µM
4.34 µM: HCT-15
active: SK-MEL-5 0.386 µM | UACC-257 0.462 µM | HCT-116 0.522 µM | MDA-MB-435 0.491 µM | MDA-N 0.191 µM

Cc1cc2[nH]c3c(C#N)c4c(c(=O)n3c2cc1C)CCCC4
> 100 µM: HCT-15
inactive: A498 > 100 µM | OVCAR-8 > 100 µM | SK-MEL-5 32.6 µM | KM12 > 100 µM | UACC-257 > 100 µM | A549 > 100 µM | HCC 2998 > 100 µM | HCT-116 > 100 µM | CCRF-CEM > 100 µM | MDA-MB-435 67.3 µM | UO-31 > 100 µM | NCI-H522 > 100 µM | TK-10 > 100 µM | HT-29 > 100 µM | IGROV-1 > 100 µM | MDA-N 87.9 µM | Hs-578T 86.1 µM

COC(=O)C1=C(O)C(C(=O)OC)[C@]2(O)[C@H](C(=O)OC)[C@H]1C[C@@H](c1ccc(OC)c(OC)c1)[C@H]2C(=O)OC (stereo partly specified)
active: CCRF-CEM 0.129 µM
14 µM: HCT-15
inactive: A498 18 µM | OVCAR-8 13.3 µM | SK-MEL-5 13.3 µM | KM12 21.1 µM | UACC-257 20.5 µM | A549 11.6 µM | HCC 2998 11.7 µM | HCT-116 21 µM | MDA-MB-435 11.3 µM | UO-31 24.5 µM | TK-10 24.9 µM | HT-29 36.9 µM | IGROV-1 26.1 µM | MDA-N 7.13 µM | HOP-62 16.7 µM | Hs-578T 29.9 µM

CCOP(=O)(OCC)/C(=C/c1ccccc1)CC(C)=O
> 100 µM: HCT-15
inactive: A498 > 100 µM | OVCAR-8 > 100 µM | SK-MEL-5 > 100 µM | KM12 > 100 µM | UACC-257 > 100 µM | A549 > 100 µM | HCC 2998 > 100 µM | HCT-116 > 100 µM | CCRF-CEM > 100 µM | MDA-MB-435 > 100 µM | UO-31 > 100 µM | TK-10 > 100 µM | HT-29 > 100 µM | IGROV-1 > 100 µM | MDA-N > 100 µM | HOP-62 > 100 µM | Hs-578T > 100 µM

C(=N\NC1=NCCN1)/c1ccc(-c2cn3cc(/C=N/NC4=NCCN4)ccc3n2)cc1
> 68.4 µM: HCT-15
inactive: A498 40.3 µM | OVCAR-8 37.5 µM | SK-MEL-5 > 100 µM | KM12 > 44 µM | UACC-257 30.3 µM | A549 10.2 µM | HCC 2998 > 47.2 µM | HCT-116 10.4 µM | CCRF-CEM 2.74 µM | MDA-MB-435 24.5 µM | UO-31 46 µM | NCI-H522 10.9 µM | TK-10 26.6 µM | HT-29 11.9 µM | IGROV-1 15 µM | MDA-N > 49 µM | Hs-578T > 87.3 µM

FC(F)(F)c1cc(N(C2c3ccccc3C=Cc3ccccc32)P(Cl)Cl)cc(C(F)(F)F)c1
inactive: A498 26.9 µM | OVCAR-8 17.6 µM | SK-MEL-5 18.1 µM | KM12 21.4 µM | UACC-257 18.3 µM | A549 18.3 µM | HCT-116 16.5 µM | CCRF-CEM 24 µM | MDA-MB-435 21.8 µM | UO-31 17.6 µM | NCI-H522 14.1 µM | TK-10 33 µM | HT-29 24.5 µM | IGROV-1 26.2 µM | MDA-N 22 µM | HOP-62 17.6 µM | Hs-578T 25.5 µM
5.78 µM: HCT-15

c1ccc(C/C(=N\Nc2nc3ccccc3[nH]2)c2ccccn2)cc1
inactive: HCC 2998 13.1 µM
active: A498 0.217 µM | OVCAR-8 0.0235 µM | SK-MEL-5 0.0408 µM | KM12 0.16 µM | UACC-257 < 0.0107 µM | A549 0.069 µM | HCT-116 < 0.01 µM | CCRF-CEM < 0.01 µM | MDA-MB-435 0.385 µM | UO-31 0.0261 µM | NCI-H522 < 0.01 µM | HT-29 < 0.01 µM | IGROV-1 < 0.01 µM | MDA-N 0.262 µM | HOP-62 < 0.0232 µM | Hs-578T 0.879 µM
< 0.01 µM: HCT-15

C=CCc1cc(C=C(C#N)C#N)cc(OC)c1O
67.6 µM: HCT-15
inactive: A498 > 100 µM | OVCAR-8 > 100 µM | SK-MEL-5 27.7 µM | KM12 > 100 µM | UACC-257 > 100 µM | A549 > 100 µM | HCC 2998 > 10 µM | HCT-116 > 100 µM | CCRF-CEM 46.9 µM | MDA-MB-435 59 µM | UO-31 > 100 µM | NCI-H522 90.6 µM | TK-10 > 100 µM | HT-29 > 100 µM | IGROV-1 > 100 µM | MDA-N > 100 µM | Hs-578T > 100 µM

COC(=O)NCCc1n[nH]c2c1C(=O)C=C(OC)C2=O
inactive: OVCAR-8 22 µM | SK-MEL-5 15.5 µM | KM12 20.9 µM | UACC-257 15 µM | A549 46.7 µM | HCC 2998 > 100 µM | HCT-116 18.6 µM | CCRF-CEM 21.1 µM | MDA-MB-435 14.6 µM | UO-31 24.3 µM | NCI-H522 23.9 µM | TK-10 43.9 µM | HT-29 42.6 µM | IGROV-1 19.9 µM | MDA-N 17.9 µM | HOP-62 20.9 µM | Hs-578T 34.3 µM
28.4 µM: HCT-15
